Source: ChEMBL document CHEMBL1129145, “Phosphonate-containing analogs of cholesteryl ester as novel inhibitors of cholesteryl ester transfer protein” (Bioorg Med Chem Lett, 1996)

Legend:
[1] = target: T1, Cholesteryl ester transfer protein (Homo sapiens, UniProt P11597); assay: Tested for inhibition of [3H]cholesteryl linoleate(CE) transfer from donor HDL to acceptor LDL driven by recombinant human cholesteryl ester transfer protein; inactive
T1 sequence (P11597 whole entry): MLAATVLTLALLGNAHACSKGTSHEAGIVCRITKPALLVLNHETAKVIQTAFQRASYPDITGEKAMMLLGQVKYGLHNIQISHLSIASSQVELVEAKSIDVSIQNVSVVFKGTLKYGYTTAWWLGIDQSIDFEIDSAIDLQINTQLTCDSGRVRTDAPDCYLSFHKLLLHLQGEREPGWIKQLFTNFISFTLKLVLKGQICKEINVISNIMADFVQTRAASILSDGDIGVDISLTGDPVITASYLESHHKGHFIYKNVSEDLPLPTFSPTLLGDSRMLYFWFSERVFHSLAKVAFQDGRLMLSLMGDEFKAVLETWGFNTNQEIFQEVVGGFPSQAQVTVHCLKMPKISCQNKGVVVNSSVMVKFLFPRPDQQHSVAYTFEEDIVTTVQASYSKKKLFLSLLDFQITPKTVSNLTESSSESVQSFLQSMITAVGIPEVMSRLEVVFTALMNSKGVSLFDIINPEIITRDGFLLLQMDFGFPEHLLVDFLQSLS

[2] = target: T1, Cholesteryl ester transfer protein; assay: Tested for inhibition of [3H]cholesteryl linoleate(CE) transfer from donor HDL to acceptor LDL driven by recombinant human Cholesteryl ester transfer protein
[3] = target: T1, Cholesteryl ester transfer protein; assay: Tested for inhibition of [3H]cholesteryl linoleate(CE) transfer from donor HDL to acceptor LDL driven by recombinant human Cholesteryl ester transfer protein; Inactive
[4] = target: T2, Cholesteryl ester transfer protein (Homo sapiens) (UniProt P11597); assay: Tested for inhibition of [3H]cholesteryl linoleate(CE) transfer from donor HDL to acceptor LDL driven by recombinant human Cholesteryl ester transfer protein at 30 micro M
T2 sequence (whole entry): T1 sequence (P11597 whole entry)

[5] = target: T1, Cholesteryl ester transfer protein; assay: Tested for inhibition of [3H]cholesteryl linoleate(CE) transfer from donor HDL to acceptor LDL driven by recombinant human cholesteryl ester transfer protein; Inactive
[6] = target: T2, Cholesteryl ester transfer protein (Homo sapiens); assay: Tested for inhibition of [3H]cholesteryl linoleate(CE) transfer from donor HDL to acceptor LDL driven by recombinant human cholesteryl ester transfer protein at 30 micro M
[7] = target: T1, Cholesteryl ester transfer protein; assay: Tested for inhibition of [3H]cholesteryl linoleate(CE) transfer from donor HDL to acceptor LDL driven by recombinant human cholesteryl ester transfer protein

IC50 [2] | SMILES | IC50 [3] | also measured
6 µM | CCCCCCCCCCCCCCP(=O)(O)OCc1cccc(Oc2ccccc2)c1 |  | 
4 µM | CCCCCCCCCCCCCCCP(=O)(O)OCc1ccccc1 |  | 
5 µM | CCCCCCCCCCCCCCP(=O)(O)OCc1ccccc1 |  | 
15 µM | CCCCCCCCCCCCCCP(=O)(O)OCc1ccoc1 |  | 

The next lines start with the molecule.

SMILES | IC50 [2] | IC50 [3] | also measured
CCCCCCCCCCCCCCCCCC[PH](=O)O[C@H]1CC[C@@]2(C)C(CC[C@H]3[C@@H]4CC[C@H]([C@H](C)CCCC(C)C)[C@@]4(C)CC[C@@H]32)C1 (stereo not given in full) |  |  | IC50 [1]: Not Active
CCCCCCCCCCCCCc1n[nH]c(=S)n1-c1ccccc1 | 1.5 µM |  | 
CCCCCCCCCCCCCCCCCCP(=O)(O)Oc1ccc2c(c1)Cc1ccccc1-2 |  | Not Active | 
CCCCCCCCCCCCCCCCCCP(=O)(O)O[C@H]1CC[C@@]2(C)C(CC[C@H]3[C@@H]4CC[C@H]([C@H](C)CCCC(C)C)[C@@]4(C)CC[C@@H]32)C1 (stereo not given in full) |  |  | inhibition [4]: 30%
CCCCCCCCCCCCCCCCCC[PH](=O)OCc1ccccc1 (stereo not given) |  | Not Active | 
CCCCCC[PH](=O)OCc1ccccc1 (stereo not given) |  | Not Active | 
CCCCCCCCCCCCCCCCCCP(=O)(O)OCc1cccnc1 |  | Not Active | 
CCCCCCCCCCCCCCCCCCP(=O)(OC)OCc1ccccc1 (stereo not given) |  |  | IC50 [5]: Not Active
CCCCCCCCCCCCCCCCCCP(=O)(O)OC1c2ccccc2-c2ccccc21 |  | Not Active | 
CCCCCCCCCCCCCCP(=O)(O)Oc1ccc2ccccc2c1 | 24 µM |  | 
CCCCCCCCCCCCCCCCCCP(=O)(O)OC |  |  | inhibition [6]: 46%
CCCCCCCCCCCCCCCCCCP(=O)(O)Oc1cc2ccccc2c2ccccc12 |  | Not Active | 
CCCCCCCCCC[PH](=O)OCc1ccccc1 (stereo not given) |  | Not Active | 
CCCCCCCCCCCCCCCCCC[PH](=O)O |  |  | inhibition [4]: 28%
CCCCCCCCCCCCCCCCCCP(=O)(O)OCc1ccccc1 |  |  | IC50 [7]: 2 µM
CCCCCCCCCCCCCCCCCCP(=O)(O)CCc1ccccc1 |  |  | IC50 [7]: 14 µM
